Measured values from patent US11370825B2, “Polypeptides, cells, and methods involving engineered CD16” (Regents of the University of Minnesota, priority 2014, dated 2022).

Tests used:
[1] = tested on: ADAM17; assay: Anti-ADAM17 mAb staining of NK92 cells expressing CD16a or CD16a/S197P, flow cytometry; type: cell-based, human; conditions: NK92 cells expressing CD16a compared with CD16a/S197P; multiple anti-ADAM17 mAbs
Procedure: FIG. 4. Effects of the engineered S197P mutation on CD16a shedding in NK cells. NK92 cells transduced with empty vector (vector only), CD16a, or CD16a/S197P were treated without (Unstim.) or with PMA (100 ng/ml) for 30 minutes at 37° C. (A), with IL-12 and IL-18 (100 ng/ml and 400 ng/ml, respectively) for 24 hours at 37° C. (B), or with Raji cells and rituximab for 60 minutes at 37° C. (C). Cell surface levels of CD16a were determined by flow cytometry. Isotype-matched negative control antibody staining is indicated by a dotted line. […] Soluble CD16a levels were determined by ELISA. […] For all histogram plots, the x-axis=Log 10 fluorescence, the y-axis=cell number, and the data are representative of at least 3 independent experiments.
(§1) For cell staining, nonspecific antibody binding sites were blocked and cells were stained with the indicated antibodies and examined by flow cytometry, as previously described (Wang et al., 2013, Biochim Biophys Acta. 1833:680-685; Romee et al., 2013, Blood 121:3599-3608). […] Human CD16 was detected by the mAbs 3G8 (BioLegend, Inc., San Diego, Calif.) and DJ130c (Santa Cruz Biotech, Santa Cruz, Calif.). CD107a was detected by the mAb H4A3 (Biolegend, Inc., San Diego, Calif.). ADAM17 was detected by the mAbs M220 (Doedens et al., 2000, J Biol Chem. 275:14598-14607), 111633, and 111623 (R&D Systems, Inc., Minneapolis, Minn.). […]

[2] = tested on: iPSC-derived NK cells; assay: Cell surface CD16a on iPSC-derived NK cells stimulated with K562 cells, flow cytometry; type: cell-based, human; conditions: iPSC-derived NK cells with K562 target cells (2:1 ratio), four hours at 37° C.
[3] = tested on: monomeric human IgG; assay: Antibody binding assay: monomeric human IgG and IgA binding to NK92 cells expressing CD16a or CD16a/S197P; conditions: NK92 cells expressing the receptor; IgA 20 μg/ml
Procedure: (§2) FIG. 5. Effects of the engineered S197P mutation on CD16a function. (A) NK92 cells expressing CD16a or CD16a/S197P at equivalent levels (left panel) were treated with monomeric human IgG (0-20 μg/ml). As controls, cells were also treated with monomeric human IgA (20 μg/ml), and NK92 parent cells were treated with IgG (20 μg/ml) (bar). Antibody binding was determined by flow cytometry, as described in Materials and Methods. […] Statistical significance is indicated as *P<0.05 versus IgG (0 μg/ml), IgA, or NK92 parent cells+IgG. (B) Mock transduced NK92 cells or NK92 cells expressing CD16a or CD16a/S197P were incubated in the absence (Unstim.) or presence of Raji cells treated with or without anti-CD20 rituximab for the indicated time points at 37° C. NK92 cell activation was assessed by the up-regulation in CD107a staining by flow cytometry. For the histogram plots, the x-axis=Log 10 fluorescence and the y-axis=cell number. Data are representative of at least 3 independent experiments.
Cell binding to monomeric human IgG and IgA (Sigma-Aldrich, St. Louis, Mo.) was performed as previously described with some modifications (Dong et al., 2014, Arthritis Rheumatol. 66:1291-1299). […] The cells were washed and then immediately analyzed by flow cytometry.

[4] = tested on: NK92 cells; assay: NK92 cell activation: CD107a up-regulation on incubation with Raji cells with or without rituximab, flow cytometry; type: cell-based, human
Procedure: as §2
HEK293 and NK92 cells in RPMI 1640 media (Mediatech, Inc., Manassas, Va.) were activated with 15 ng/ml and 100 ng/ml, respectively, PMA for 30 minutes at 37° C. NK92 cells were activated with IL-12 (PeproTech Inc, Rocky Hill, N.J.) and IL-18 (R&D Systems, Inc., Minneapolis, Minn.) at 100 ng/ml and 400 ng/ml, respectively, for the indicated time points. NK92 cell activation through CD16a was mediated by their incubation with the CD20-positive Burkitt's lymphoma cell line Raji (ATCC, grown according to the depository's instructions) (1:1 ratio) treated with the anti-CD20 mAb rituximab (1 μg/ml) (Genentech, Inc., South San Francisco, Calif.), as described previously (Romee et al., 2013, Blood 121:3599-3608). Excess rituximab was removed by washing the Raji cells. In some experiments, NK92 cells were pre-incubated for 30 minutes with the selective ADAM17 inhibitor BMS566394 (5 μM) (Bristol-Myers Squibb Company, Princeton, N.J.). […]
as §1, with “Minn.). Human L-selectin was detected by the mAb LAM1-116 (Ancell Corp., Stillwater, Minn.).” for “Minn.).”

[5] = NK92 cells incubated with Raji cells alone
[6] = NK92 cells incubated with Raji cells treated with rituximab

Row | Substance | ADAM17 cell surface levels [1] | cell surface expression of CD16a after stimulation [2] | monomeric IgA binding (control) [3] | up-regulation of CD107a [4, 5] | up-regulation of CD107a [4, 6]
1 | CD16a: Wild-type human IgG Fc receptor CD16a (FcγRIIIa), valine allelic variant, recombinant comparator [reference compound] | identical cell surface levels | marked down-regulation | essentially background levels | marginally up-regulated | considerable up-regulation
2 | CD16a/S197P: Human CD16a (FcγRIIIa, SEQ ID NO:1) with serine-197 substituted by proline in the membrane proximal cleavage region; expressed recombinantly in cells | identical cell surface levels | remained stable | essentially background levels | marginally up-regulated | considerable up-regulation
